Test [1] addresses T1, Mitogen-activated protein kinase kinase kinase 5 (Homo sapiens) (UniProt Q99683).
T1 sequence (whole entry): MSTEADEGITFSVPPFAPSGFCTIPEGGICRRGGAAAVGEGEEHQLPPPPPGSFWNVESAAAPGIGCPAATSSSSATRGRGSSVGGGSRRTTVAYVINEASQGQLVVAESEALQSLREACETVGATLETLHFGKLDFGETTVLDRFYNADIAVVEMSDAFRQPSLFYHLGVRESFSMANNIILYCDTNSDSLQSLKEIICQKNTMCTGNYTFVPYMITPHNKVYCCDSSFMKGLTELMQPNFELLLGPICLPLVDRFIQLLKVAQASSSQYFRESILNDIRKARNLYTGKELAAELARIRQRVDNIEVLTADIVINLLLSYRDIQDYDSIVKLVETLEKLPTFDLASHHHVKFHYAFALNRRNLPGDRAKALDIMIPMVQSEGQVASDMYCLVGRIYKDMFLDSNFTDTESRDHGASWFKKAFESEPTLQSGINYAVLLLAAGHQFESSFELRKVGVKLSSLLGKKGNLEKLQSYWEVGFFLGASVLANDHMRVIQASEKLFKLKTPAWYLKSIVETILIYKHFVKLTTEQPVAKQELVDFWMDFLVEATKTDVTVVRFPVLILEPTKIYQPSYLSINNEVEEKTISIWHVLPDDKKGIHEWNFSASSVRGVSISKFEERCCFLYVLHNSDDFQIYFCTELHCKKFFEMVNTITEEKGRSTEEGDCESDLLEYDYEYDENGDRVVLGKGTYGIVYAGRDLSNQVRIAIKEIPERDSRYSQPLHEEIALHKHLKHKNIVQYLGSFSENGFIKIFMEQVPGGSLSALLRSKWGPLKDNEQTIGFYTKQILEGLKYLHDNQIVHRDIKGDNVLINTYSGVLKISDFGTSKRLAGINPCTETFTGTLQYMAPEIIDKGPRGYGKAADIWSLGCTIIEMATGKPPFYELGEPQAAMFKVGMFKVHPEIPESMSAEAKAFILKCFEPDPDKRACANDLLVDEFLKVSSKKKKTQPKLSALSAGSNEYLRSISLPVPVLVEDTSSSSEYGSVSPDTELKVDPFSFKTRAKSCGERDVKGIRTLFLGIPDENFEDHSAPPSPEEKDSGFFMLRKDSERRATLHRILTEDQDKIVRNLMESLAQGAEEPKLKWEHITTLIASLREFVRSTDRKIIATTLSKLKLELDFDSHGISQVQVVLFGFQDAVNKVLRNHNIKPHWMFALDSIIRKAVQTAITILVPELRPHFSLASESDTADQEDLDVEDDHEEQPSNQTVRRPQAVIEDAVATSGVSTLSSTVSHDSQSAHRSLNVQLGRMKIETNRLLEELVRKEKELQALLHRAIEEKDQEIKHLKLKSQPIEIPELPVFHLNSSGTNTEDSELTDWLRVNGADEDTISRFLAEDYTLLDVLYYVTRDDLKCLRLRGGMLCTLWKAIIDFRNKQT
Description: Selectivity interaction (LanthaScreen Eu Kinase Binding Assay) EUB0001632a MAP3K5. To be noted: at 10 µM.

Test [2] concerns the target Serine/threonine-protein kinase PLK1 (Homo sapiens, UniProt P53350). The test can be described thus: Selectivity interaction (Kinase panel (KiNativ target engagement assay in Jurkat cells)) EUB0001635a PLK1. The following applies: Selectivity number of off-targets 0.0, Selectivity number of targets 233.0, Source Knowledge https://www.sciencedirect.com/science/article/pii/S2451945619300674?via%3Dihub, at 1 µM. The class given is cell-based.

The target in test [3] is Ribosomal protein S6 kinase alpha-6 (Homo sapiens, UniProt Q9UK32). Description: Selectivity interaction (Ambit KINOMEscan and KiNATiv profiling in Jurkat cells) EUB0000090b RPS6KA6. It counts as cell-based. The following applies: at 1 µM.
Sequence of Ribosomal protein S6 kinase alpha-6 (Q9UK32 whole entry, canonical isoform): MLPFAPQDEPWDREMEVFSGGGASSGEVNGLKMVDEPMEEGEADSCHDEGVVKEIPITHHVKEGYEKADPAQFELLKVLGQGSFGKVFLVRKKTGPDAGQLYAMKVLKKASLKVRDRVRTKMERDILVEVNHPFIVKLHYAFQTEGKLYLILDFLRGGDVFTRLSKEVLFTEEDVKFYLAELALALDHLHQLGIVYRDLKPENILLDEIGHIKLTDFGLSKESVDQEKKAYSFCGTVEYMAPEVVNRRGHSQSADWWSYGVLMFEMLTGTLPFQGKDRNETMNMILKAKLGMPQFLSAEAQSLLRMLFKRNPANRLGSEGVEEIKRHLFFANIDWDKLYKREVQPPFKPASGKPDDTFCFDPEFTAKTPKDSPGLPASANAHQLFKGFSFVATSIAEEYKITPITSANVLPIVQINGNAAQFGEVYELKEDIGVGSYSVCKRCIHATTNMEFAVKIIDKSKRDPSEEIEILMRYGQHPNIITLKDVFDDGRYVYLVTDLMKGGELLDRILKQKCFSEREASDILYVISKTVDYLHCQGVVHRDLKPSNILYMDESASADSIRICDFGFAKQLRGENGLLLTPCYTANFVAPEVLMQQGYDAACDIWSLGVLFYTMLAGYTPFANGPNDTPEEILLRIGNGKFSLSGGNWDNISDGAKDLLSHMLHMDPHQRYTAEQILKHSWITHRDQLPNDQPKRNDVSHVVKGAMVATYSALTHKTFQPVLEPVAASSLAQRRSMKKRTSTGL
Test [4] has as its system Phosphatidylinositol 4,5-bisphosphate 3-kinase catalytic subunit alpha isoform (Homo sapiens), P42336 [E542K]. The following applies: at 10 µM.
Test [5] has as its target Activin receptor type-1-like (Homo sapiens) (UniProt P37023). To be noted: at 10 µM.
For test [6], the target named is Casein kinase I isoform alpha (Homo sapiens, UniProt P48729). Description: Selectivity interaction (KinomeScan (DiscoverX)) EUB0000655a CSNK1A1. To be noted: at 10 µM.
Sequence of Casein kinase I isoform alpha (P48729 2-337 limits assumed): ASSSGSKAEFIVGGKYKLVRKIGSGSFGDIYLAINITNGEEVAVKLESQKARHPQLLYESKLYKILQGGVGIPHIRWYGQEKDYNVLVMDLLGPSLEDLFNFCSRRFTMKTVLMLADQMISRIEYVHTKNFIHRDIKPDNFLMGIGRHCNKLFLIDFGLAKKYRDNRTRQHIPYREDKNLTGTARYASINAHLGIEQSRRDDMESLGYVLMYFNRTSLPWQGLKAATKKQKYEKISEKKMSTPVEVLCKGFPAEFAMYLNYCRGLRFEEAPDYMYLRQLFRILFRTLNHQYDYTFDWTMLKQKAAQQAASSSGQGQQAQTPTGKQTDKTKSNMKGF
Test [7] addresses Cyclin-dependent kinase 17 (Homo sapiens) (UniProt Q00537). Description: Selectivity interaction (KinomeScan (DiscoverX)) EUB0000655a CDK17. To be noted: at 10 µM.
In test [8] the target is T2, Inhibitor of nuclear factor kappa-B kinase subunit alpha (Homo sapiens) (UniProt O15111).
T2 sequence (whole entry): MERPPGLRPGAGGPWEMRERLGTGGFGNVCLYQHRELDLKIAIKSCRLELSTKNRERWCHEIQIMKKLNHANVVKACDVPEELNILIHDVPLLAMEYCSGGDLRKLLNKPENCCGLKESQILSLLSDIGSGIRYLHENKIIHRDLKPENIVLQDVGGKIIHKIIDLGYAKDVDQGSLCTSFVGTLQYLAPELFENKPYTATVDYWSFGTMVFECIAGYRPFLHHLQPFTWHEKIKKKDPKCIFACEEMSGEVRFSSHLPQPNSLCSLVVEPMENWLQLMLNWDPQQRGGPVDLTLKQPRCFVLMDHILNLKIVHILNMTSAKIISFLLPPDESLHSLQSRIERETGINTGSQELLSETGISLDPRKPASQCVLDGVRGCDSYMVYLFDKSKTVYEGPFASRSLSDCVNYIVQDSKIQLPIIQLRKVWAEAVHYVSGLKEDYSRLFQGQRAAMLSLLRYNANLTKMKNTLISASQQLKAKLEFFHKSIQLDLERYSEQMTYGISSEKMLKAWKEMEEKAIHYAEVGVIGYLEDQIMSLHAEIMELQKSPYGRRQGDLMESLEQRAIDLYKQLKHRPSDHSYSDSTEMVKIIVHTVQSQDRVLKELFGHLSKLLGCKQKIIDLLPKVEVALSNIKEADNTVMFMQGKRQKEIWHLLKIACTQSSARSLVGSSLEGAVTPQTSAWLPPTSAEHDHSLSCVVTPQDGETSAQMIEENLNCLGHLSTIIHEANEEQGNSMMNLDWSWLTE
Description: Selectivity interaction (ActivX KiNativ screen (kinase selectivity in THP-1 cell lysates)) EUB0000639a CHUK. The class given is subcellular. The following applies: lysate.

For test [9], the target named is 5'-AMP-activated protein kinase catalytic subunit alpha-1 (Homo sapiens, UniProt Q13131). Description: Selectivity interaction (Kinase screening (Upstate/Millipore)) EUB0000604a PRKAA1.
Sequence of 5'-AMP-activated protein kinase catalytic subunit alpha-1 (Q13131 whole entry, looked up): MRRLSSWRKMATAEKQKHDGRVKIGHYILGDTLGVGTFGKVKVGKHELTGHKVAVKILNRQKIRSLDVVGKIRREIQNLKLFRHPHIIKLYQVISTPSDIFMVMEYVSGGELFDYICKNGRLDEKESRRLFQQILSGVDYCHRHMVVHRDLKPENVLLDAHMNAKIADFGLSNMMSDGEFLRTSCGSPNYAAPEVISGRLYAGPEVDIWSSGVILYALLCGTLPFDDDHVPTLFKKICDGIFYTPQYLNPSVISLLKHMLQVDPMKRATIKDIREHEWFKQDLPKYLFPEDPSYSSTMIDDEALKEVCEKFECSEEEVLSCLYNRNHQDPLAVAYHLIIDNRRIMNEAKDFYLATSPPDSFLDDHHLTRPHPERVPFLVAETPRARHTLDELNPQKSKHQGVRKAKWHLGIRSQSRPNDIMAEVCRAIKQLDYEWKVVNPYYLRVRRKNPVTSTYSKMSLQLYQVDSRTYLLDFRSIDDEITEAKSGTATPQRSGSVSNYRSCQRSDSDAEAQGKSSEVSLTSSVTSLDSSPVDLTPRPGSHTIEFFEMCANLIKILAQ
Test [10] has as its target Mitogen-activated protein kinase 14 (Homo sapiens, UniProt Q16539). Description: Selectivity interaction (Millipore kinase profiler) EUB0000124b MAPK14. The following applies: at 10 µM.

Sequence of Phosphatidylinositol 4,5-bisphosphate 3-kinase catalytic subunit alpha isoform (Homo sapiens), P42336 [E542K] (P42336 whole entry E542K, canonical isoform): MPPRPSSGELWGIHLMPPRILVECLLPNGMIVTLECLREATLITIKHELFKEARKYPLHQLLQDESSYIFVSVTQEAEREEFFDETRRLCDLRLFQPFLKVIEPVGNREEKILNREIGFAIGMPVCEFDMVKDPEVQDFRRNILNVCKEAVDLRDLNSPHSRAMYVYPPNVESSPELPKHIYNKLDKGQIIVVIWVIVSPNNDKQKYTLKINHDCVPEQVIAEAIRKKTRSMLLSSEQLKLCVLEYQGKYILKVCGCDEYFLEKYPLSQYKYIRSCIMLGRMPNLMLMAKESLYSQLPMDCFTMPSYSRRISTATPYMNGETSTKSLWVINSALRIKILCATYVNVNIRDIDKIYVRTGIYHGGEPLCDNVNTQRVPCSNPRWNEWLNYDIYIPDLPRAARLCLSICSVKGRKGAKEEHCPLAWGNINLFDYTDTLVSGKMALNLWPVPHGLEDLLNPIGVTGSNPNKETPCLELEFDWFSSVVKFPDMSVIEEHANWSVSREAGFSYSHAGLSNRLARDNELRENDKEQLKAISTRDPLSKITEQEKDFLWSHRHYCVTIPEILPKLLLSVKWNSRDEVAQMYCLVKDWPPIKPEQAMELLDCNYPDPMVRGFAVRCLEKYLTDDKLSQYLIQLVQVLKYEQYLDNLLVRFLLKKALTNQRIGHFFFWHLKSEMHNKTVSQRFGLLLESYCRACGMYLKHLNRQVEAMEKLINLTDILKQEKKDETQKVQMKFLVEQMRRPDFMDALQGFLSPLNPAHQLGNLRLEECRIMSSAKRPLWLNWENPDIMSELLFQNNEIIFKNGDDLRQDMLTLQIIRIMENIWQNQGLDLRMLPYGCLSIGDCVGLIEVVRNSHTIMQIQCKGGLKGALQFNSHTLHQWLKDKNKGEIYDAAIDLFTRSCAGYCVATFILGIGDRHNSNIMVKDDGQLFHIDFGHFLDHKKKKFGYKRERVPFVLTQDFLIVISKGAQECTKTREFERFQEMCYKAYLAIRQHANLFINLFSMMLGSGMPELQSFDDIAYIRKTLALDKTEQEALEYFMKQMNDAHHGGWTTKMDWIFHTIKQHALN
Sequence of Cyclin-dependent kinase 17 (Homo sapiens) (Q00537 whole entry, looked up): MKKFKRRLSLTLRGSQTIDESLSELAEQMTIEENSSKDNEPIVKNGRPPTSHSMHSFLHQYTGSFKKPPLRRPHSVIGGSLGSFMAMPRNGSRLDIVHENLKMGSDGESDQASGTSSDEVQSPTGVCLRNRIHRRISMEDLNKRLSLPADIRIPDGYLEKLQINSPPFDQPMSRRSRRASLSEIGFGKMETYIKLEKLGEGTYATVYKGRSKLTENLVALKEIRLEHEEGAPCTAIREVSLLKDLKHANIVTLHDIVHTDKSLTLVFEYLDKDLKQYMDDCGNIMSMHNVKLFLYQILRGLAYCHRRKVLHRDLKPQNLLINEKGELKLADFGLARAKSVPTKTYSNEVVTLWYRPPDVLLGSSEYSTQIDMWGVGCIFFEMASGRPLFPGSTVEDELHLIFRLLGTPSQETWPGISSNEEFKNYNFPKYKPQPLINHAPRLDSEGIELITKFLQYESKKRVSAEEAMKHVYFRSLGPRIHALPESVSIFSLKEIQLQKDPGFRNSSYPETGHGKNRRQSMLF
Sequence of Mitogen-activated protein kinase 14 (Q16539 whole entry): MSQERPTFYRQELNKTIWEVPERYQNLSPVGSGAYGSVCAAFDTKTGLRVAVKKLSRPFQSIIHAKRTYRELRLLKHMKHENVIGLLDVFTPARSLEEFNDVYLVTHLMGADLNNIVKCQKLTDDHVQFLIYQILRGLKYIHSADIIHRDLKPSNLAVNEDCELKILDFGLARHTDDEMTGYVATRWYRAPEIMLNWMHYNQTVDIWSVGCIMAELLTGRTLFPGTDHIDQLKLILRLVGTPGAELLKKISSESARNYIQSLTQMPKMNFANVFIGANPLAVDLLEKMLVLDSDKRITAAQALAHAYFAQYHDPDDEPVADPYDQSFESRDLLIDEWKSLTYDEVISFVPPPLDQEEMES
Sequence of Serine/threonine-protein kinase PLK1 (P53350 whole entry): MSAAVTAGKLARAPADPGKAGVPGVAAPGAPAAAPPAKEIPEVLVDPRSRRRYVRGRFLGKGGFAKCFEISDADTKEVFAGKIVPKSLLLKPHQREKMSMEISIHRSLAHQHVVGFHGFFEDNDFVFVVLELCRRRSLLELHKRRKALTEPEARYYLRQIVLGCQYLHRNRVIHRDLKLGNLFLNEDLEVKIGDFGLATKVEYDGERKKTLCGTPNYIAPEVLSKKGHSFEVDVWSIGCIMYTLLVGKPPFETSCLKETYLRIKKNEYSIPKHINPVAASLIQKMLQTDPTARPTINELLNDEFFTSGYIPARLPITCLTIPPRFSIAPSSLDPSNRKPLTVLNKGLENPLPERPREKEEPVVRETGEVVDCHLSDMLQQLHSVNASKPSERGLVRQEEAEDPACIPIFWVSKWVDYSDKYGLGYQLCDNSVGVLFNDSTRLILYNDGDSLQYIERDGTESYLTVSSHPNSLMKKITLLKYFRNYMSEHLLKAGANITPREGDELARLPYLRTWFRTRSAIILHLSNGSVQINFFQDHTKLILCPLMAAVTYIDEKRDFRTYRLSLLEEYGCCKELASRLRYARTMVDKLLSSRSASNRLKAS
Sequence of Activin receptor type-1-like (Homo sapiens) (P37023 whole entry, canonical isoform): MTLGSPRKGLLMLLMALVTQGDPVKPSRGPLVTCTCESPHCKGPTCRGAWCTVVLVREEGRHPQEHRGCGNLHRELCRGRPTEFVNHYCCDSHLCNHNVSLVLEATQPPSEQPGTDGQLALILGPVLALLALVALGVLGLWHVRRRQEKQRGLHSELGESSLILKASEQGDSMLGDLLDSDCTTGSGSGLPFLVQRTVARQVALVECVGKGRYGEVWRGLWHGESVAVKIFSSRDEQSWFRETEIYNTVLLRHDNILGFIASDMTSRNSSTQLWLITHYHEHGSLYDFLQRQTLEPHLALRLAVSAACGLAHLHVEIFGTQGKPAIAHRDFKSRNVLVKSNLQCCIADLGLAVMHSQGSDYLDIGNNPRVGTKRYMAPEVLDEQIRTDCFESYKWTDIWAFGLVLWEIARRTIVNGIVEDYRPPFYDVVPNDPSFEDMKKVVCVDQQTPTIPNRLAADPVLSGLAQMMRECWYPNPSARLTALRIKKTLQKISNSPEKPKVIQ

`Cn1cc(-n2cnc3c(NCc4nc5cc(Cl)c(Cl)cc5[nH]4)nc(N4CCOCC4)nc32)cn1`: the % of inhibition in [1] is -14.2%.

As for `C=CC(=O)Nc1ccc(C(=O)Nc2[nH]nc3c2CN(C(=O)N[C@H](CN(C)C)c2ccccc2)C3(C)C)cc1`, in test [2], the % of engagement is 5%.

As for `CN(C)C/C=C/C(=O)Nc1ccc(C(=O)N2CCCC(Nc3ncc(Cl)c(-c4c[nH]c5ccccc45)n3)C2)cc1` (centres undefined), in test [3], the % of control is 14%.

Regarding `CNC(=O)Nc1ccc(-c2nc(N3CC4CCC(C3)O4)c3cnn(C4CCC5(CC4)OCCO5)c3n2)cc1`, in test [4], the % of control is 14%.

For the molecule `Cc1cc([C@@H](C)Nc2ccccc2C(=O)O)c2nc(N3CCOCC3)cc(=O)n2c1` [AZD-6482], the % of control in test [5] came to 89%.

As to `CN(C)CCOc1ccc(-c2nc(-c3ccncc3)c(-c3ccc4c(c3)CC/C4=N\O)[nH]2)cc1`, the % of control in [6] came to 38%; in test [7], 87%.

On to `CC[C@@H]1[C@H](F)C(=O)N[C@@H]1COc1nccc2cc(C(N)=O)c(OC)cc12` [ZIMLOVISERTIB], for which the % of inhibition is 1.5% in [8] (at 0.01 µM); -2.5% in test [8] (at 0.04 µM); 7.8% in test [8] (at 0.2 µM); 6.7% in test [8] (at 1 µM); -16.4% in test [8] (at 5 µM).

With `Cc1cnc(Nc2ccc(F)cc2Cl)nc1-c1c[nH]c(C(=O)N[C@H](CO)c2cccc(Cl)c2)c1`, the % of inhibition in test [9] turned out to be 5%.

In test [10], `CC(=O)Nc1cccc(-n2c(=O)n(C3CC3)c(=O)c3c(Nc4ccc(I)cc4F)n(C)c(=O)c(C)c32)c1` yielded a % of control of 84%.
